Columns and labels:
HEK293E cells [1] = test: Influence of 2-aminopurine on IgG batch yield (ELISA) of transiently transfected cells; format: cell-based; details: with 3 mmol/l sodium butyrate, day 18
CHO DG44 cells = test: Influence of temperature and sodium butyrate on IgG batch yield (ELISA) of transiently transfected cells; format: cell-based; details: 2 mmol/l NaBut, peak value during 18 day cultivation
Method: After that time, 18 ml of ProCHO5 medium were added. The cells were then equally distributed into 4 new 50-ml filter tubes (i.e., 5 ml of cell suspension in each tube) and treated as follows:
Tubes 8.1 and 8.3: Addition of sodium butyrate to a final concentration of 2 mmol/l
Tubes 8.2 and 8.4: No addition of sodium butyrate.

HEK293E cells [2] = test: Influence of sodium butyrate on IgG batch yield (ELISA) of transiently transfected cells; details: day 14

Compound	Batch yield (HEK293E cells [1]; 5 mmol/l 2-aminopurine)	Batch yield (HEK293E cells [1]; 10 mmol/l 2-aminopurine)	Maximum batch yield (CHO DG44 cells; 31° C.)	Maximum batch yield (CHO DG44 cells; 37° C.)	Batch yield (HEK293E cells [2]; 1 mmol/l NaBut)	Batch yield (HEK293E cells [2]; 2 mmol/l NaBut)	Batch yield (HEK293E cells [2]; 3 mmol/l NaBut)	Batch yield (HEK293E cells [2]; 6 mmol/NaBut)	Batch yield (HEK293E cells [2]; 12 mmol/l NaBut)
Nc1ncc2[nH]cnc2n1 [2-aminopurine]	628 mg/L	708 mg/L							
CCCC(=O)[O-].[Na+] [NaBut, sodium butyrate]			231 mg/L	218 mg/L	419 mg/L	632 mg/L	673 mg/L	447 mg/L	288 mg/L
